From ChEMBL document CHEMBL4813922, “Discovery of a novel small-molecule inhibitor of Fam20C that induces apoptosis and inhibits migration in triple negative breast cancer” (Eur J Med Chem, 2021)
Values belong to the compound of their own block, whether it stands above or below them. Active and inactive are the calls of the source. The rule behind the calls is not given here.

Columns and labels:
MDA-MB-231 [1] = assay: Antiproliferative activity against human MDA-MB-231 cells measured by MTT assay; format: functional, cell-based
MDA-MB-468 = assay: Antiproliferative activity against human MDA-MB-468 cells measured by MTT assay; format: functional, cell-based
MCF7 = assay: Antiproliferative activity against human MCF7 cells measured by MTT assay; format: functional, cell-based
[2] = molecular target: T1, Extracellular serine/threonine protein kinase FAM20C (Homo sapiens) (UniProt Q8IXL6); assay: Inhibition of Fam20C (unknown origin) assessed as reduction in inorganic phosphate release in presence of ATP at 10 uM measured by Malachite green phosphate staining based micro plate reader assay relative to control
T1 sequence (whole entry): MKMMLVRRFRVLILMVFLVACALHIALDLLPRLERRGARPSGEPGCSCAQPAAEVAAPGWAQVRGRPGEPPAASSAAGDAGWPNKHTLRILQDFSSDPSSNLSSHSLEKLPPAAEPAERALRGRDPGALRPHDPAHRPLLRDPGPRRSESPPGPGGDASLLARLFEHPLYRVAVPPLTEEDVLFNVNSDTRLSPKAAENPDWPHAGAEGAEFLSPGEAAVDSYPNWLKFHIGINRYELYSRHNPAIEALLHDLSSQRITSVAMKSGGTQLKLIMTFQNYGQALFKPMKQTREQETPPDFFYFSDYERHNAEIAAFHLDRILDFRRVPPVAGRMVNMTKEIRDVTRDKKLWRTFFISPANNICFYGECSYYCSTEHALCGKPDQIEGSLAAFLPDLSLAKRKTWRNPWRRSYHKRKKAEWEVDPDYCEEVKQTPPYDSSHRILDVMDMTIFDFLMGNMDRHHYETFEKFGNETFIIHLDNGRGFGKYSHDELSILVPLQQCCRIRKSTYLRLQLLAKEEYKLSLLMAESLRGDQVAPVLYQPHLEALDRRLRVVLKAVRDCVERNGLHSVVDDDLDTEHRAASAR

[3] = molecular target: T2, Extracellular serine/threonine protein kinase FAM20C (Homo sapiens, UniProt Q8IXL6); assay: Inhibition of Fam20C (unknown origin) assessed as reduction in inorganic phosphate release in presence of ATP measured by Malachite green phosphate staining based micro plate reader assay
T2 sequence (Q8IXL6 whole entry): T1 sequence (whole entry)

MDA-MB-231 [4] = assay: Inhibition of colony formation in human MDA-MB-231 cells at 5 uM measured after 2 weeks by crystal violet staining based analysis; format: functional, cell-based
MCF-10A = assay: Cytotoxicity against human MCF-10A cells assessed as inhibition of cell proliferation at 0.625 to 40 uM measured by MTT assay; format: cell-based; details: dose 0.625-40 µM
MDA-MB-231 [5] = assay: Induction of apoptosis in human MDA-MB-231 cells assessed as DNA condensation measured after 24 hrs by Hoechst 33258 staining based flourescence microscopic analysis; format: functional, cell-based
MDA-MB-231 [6] = assay: Induction of apoptosis in human MDA-MB-231 cells assessed as viable cells at 2.5 uM measured after 24 hrs by Annexin V-FITC/PI staining based flow cytometry (reference value: 94.3%); format: functional; details: read-out: Activity
MDA-MB-231 [7] = assay: Induction of apoptosis in human MDA-MB-231 cells assessed as early apoptotic cells at 2.5 uM measured after 24 hrs by Annexin V-FITC/PI staining based flow cytometry (reference value: 2%); format: functional
MDA-MB-231 [8] = assay: Induction of apoptosis in human MDA-MB-231 cells assessed as late apoptotic cells at 2.5 uM measured after 24 hrs by Annexin V-FITC/PI staining based flow cytometry (reference value: 3.02%); format: functional
MDA-MB-231 [9] = assay: Induction of apoptosis in human MDA-MB-231 cells assessed as necrotic cells at 2.5 uM measured after 24 hrs by Annexin V-FITC/PI staining based flow cytometrY (reference value: 0.64%); format: functional
MDA-MB-231 [10] = assay: Induction of apoptosis in human MDA-MB-231 cells assessed as viable cells at 5 uM measured after 24 hrs by Annexin V-FITC/PI staining based flow cytometry (reference value: 94.3%); format: functional; details: read-out: Activity
MDA-MB-231 [11] = assay: Induction of apoptosis in human MDA-MB-231 cells assessed as early apoptotic cells at 5 uM measured after 24 hrs by Annexin V-FITC/PI staining based flow cytometry (reference value: 2%); format: functional
MDA-MB-231 [12] = assay: Induction of apoptosis in human MDA-MB-231 cells assessed as late apoptotic cells at 5 uM measured after 24 hrs by Annexin V-FITC/PI staining based flow cytometry (reference value: 3.02%); format: functional
MDA-MB-231 [13] = assay: Induction of apoptosis in human MDA-MB-231 cells assessed as necrotic cells at 5 uM measured after 24 hrs by Annexin V-FITC/PI staining based flow cytometry (reference value: 0.64%); format: functional
MDA-MB-231 [14] = assay: Induction of apoptosis in human MDA-MB-231 cells assessed as upregulation of Bax protein expression at 2.5 to 5 uM measured after 24 hrs by western blot assay; format: functional, cell-based; details: dose 2.5-5 µM
MDA-MB-231 [15] = assay: Induction of apoptosis in human MDA-MB-231 cells assessed as upregulation of cleaved caspase 3 level at 2.5 to 5 uM measured after 24 hrs by western blot assay; format: functional, cell-based; details: dose 2.5-5 µM
MDA-MB-231 [16] = assay: Induction of apoptosis in human MDA-MB-231 cells assessed as downregulation of Bcl-2 protein expression at 2.5 to 5 uM measured after 24 hrs by western blot assay; format: functional, cell-based; details: dose 2.5-5 µM
MDA-MB-231 [17] = assay: Inhibition of cell migration in human MDA-MB-231 cells assessed as decrease in wound closure at 2.5 uM measured after 24 hrs by scratch assay; format: functional, cell-based
MDA-MB-231 [18] = assay: Inhibition of cell migration in human MDA-MB-231 cells at 2.5 uM measured after 12 hrs by Transwell assay; format: functional, cell-based
MDA-MB-231 [19] = assay: Inhibition of cell migration in human MDA-MB-231 cells assessed as upregulation of E-cadherin protein expression at 2.5 to 5 uM measured after 24 hrs by western blot assay; format: functional, cell-based; details: dose 2.5-5 µM
MDA-MB-231 [20] = assay: Inhibition of cell migration in human MDA-MB-231 cells assessed as downregulation of MMP-2 protein expression at 2.5 to 5 uM measured after 24 hrs by western blot assay; format: functional, cell-based; details: dose 2.5-5 µM
MDA-MB-231 [21] = assay: Inhibition of cell migration in human MDA-MB-231 cells assessed as upregulation of E-cadherin protein expression at 2.5 uM measured after 24 hrs by immunofluorescence assay; format: functional, cell-based
MDA-MB-231 [22] = assay: Inhibition of cell migration in human MDA-MB-231 cells assessed as downregulation of MMP-2 protein expression at 2.5 uM measured after 24 hrs by immunofluorescence assay; format: functional, cell-based
MDA-MB-231 [23] = assay: Antitumour activity against human MDA-MB-231 cells xenografted in Balb/c mouse assessed as reduction in tumor volume at 25 to 50 mg/kg, ig for 14 days; format: functional, organism-based; details: dose 25-50 mg/kg, time 14.0 day
MDA-MB-231 [24] = assay: Antitumour activity against human MDA-MB-231 cells xenografted in Balb/c mouse assessed as reduction in tumor weight at 25 to 50 mg/kg, ig for 14 days; format: functional, organism-based; details: dose 25-50 mg/kg, time 14.0 day
[25] = Toxicity in Balb/c mouse xenografted with human MDA-MB-231 cells assessed as changes in body weight at 25 mg/kg, ig measured after 14 days; format: organism-based; details: in vivo, po, 336 h, time 14 day
[26] = Toxicity in Balb/c mouse xenografted with human MDA-MB-231 cells assessed as changes in body weight at 50 mg/kg, ig measured after 14 days; format: organism-based; details: in vivo, po, 336 h, time 14 day
MDA-MB-231 [27] = assay: Antitumour activity against human MDA-MB-231 cells xenografted in Balb/c mouse assessed as decrease in Ki-67 expression in tumor at 50 mg/kg, ig measured after 14 days by immunohistochemistry method; format: functional, organism-based; details: time 14.0 day
MDA-MB-231 [28] = assay: Antitumour activity against human MDA-MB-231 cells xenografted in Balb/c mouse assessed as upregulation of Bax protein expression in tumor at 25 to 50 mg/kg, ig measured after 14 days by western blot method; format: functional, organism-based; details: dose 25-50 mg/kg, time 14.0 day
MDA-MB-231 [29] = assay: Antitumour activity against human MDA-MB-231 cells xenografted in Balb/c mouse assessed as downregulation of Bcl-2 protein expression in tumor at 25 to 50 mg/kg, ig measured after 14 days by western blot method; format: functional, organism-based; details: dose 25-50 mg/kg, time 14.0 day
MDA-MB-231 [30] = assay: Antitumour activity against human MDA-MB-231 cells xenografted in Balb/c mouse assessed as increase in cleaved caspase 3 level in tumor at 25 to 50 mg/kg, ig measured after 14 days by western blot method; format: functional, organism-based; details: dose 25-50 mg/kg, time 14.0 day

Structure (SMILES): COc1ccc(S(=O)(=O)Nc2ccc(Nc3nccc(-c4ccccc4)n3)cc2)cc1
IC50 (MDA-MB-231 [1]): > 50 µM
IC50 (MDA-MB-468): > 50 µM
IC50 (MCF7): > 50 µM
inhibition [2]: 10%

Structure (SMILES): COc1ccc(Nc2cc(C(F)(F)F)nc(Nc3ccc(NS(=O)(=O)c4ccccc4OC(F)(F)F)cc3)n2)cc1
IC50 (MDA-MB-231 [1]): 32.9 µM
IC50 (MDA-MB-468): > 50 µM
IC50 (MCF7): 14 µM
inhibition [2]: 18%

Structure (SMILES): COc1cc(C)cc(Cl)c1S(=O)(=O)Nc1ccc(Nc2nc(C)cc(Nc3ccc(F)cc3)n2)cc1
IC50 (MDA-MB-231 [1]): > 50 µM
IC50 (MDA-MB-468): > 50 µM
IC50 (MCF7): > 50 µM
inhibition [2]: 12%

Structure (SMILES): COc1ccc(Nc2cc(C)nc(Nc3ccc(NS(=O)(=O)c4c(Cl)cc(C)cc4OC)cc3)n2)cc1
IC50 (MDA-MB-231 [1]): > 50 µM
IC50 (MDA-MB-468): > 50 µM
IC50 (MCF7): > 50 µM
inhibition [2]: 12%

Structure (SMILES): COc1ccc(S(=O)(=O)Nc2ccc(Nc3nc(C)cc(Nc4ccc(OC)c(O)c4)n3)cc2)cc1
IC50 (MDA-MB-231 [1]): > 50 µM
IC50 (MDA-MB-468): > 50 µM
IC50 (MCF7): > 50 µM
inhibition [2]: 11%

Structure (SMILES): COc1ccc(Nc2cc(C(F)(F)F)nc(Nc3ccc(NS(=O)(=O)c4ccc(C(F)(F)F)cc4)cc3)n2)cc1
IC50 (MDA-MB-231 [1]): 23.3 µM
IC50 (MDA-MB-468): 25.3 µM
IC50 (MCF7): 17.3 µM
inhibition [2]: 19%

Stronger by IC50 (MDA-MB-231 [1]), values ahead:

IC50 (MDA-MB-231 [1]): 17.5 µM
IC50 (MDA-MB-468): 32.3 µM
IC50 (MCF7): 18 µM
inhibition [2]: 24%
Structure (SMILES): Cc1cc(Nc2ccc(F)cc2)nc(Nc2ccc(NS(=O)(=O)c3ccc(C(F)(F)F)cc3)cc2)n1

IC50 (MDA-MB-231 [1]): 17.3 µM
IC50 (MDA-MB-468): 46.8 µM
IC50 (MCF7): > 50 µM
inhibition [2]: 28%
Structure (SMILES): COc1cc(Nc2ccnc(Nc3ccc(NS(=O)(=O)c4ccc(C)cc4)cc3)n2)cc(OC)c1OC

IC50 (MDA-MB-231 [1]): 15.3 µM
IC50 (MDA-MB-468): > 50 µM
IC50 (MCF7): > 50 µM
inhibition [2]: 40%
Structure (SMILES): COc1ccc(Nc2cc(C)nc(Nc3ccc(NS(=O)(=O)c4ccccc4Cl)cc3)n2)cc1

IC50 (MDA-MB-231 [1]): 6.87 µM
IC50 (MDA-MB-468): 14.8 µM
IC50 (MCF7): 29 µM
inhibition [2]: 25%
Structure (SMILES): COc1ccc(Nc2ccnc(Nc3ccc(NS(=O)(=O)c4ccc(OC)cc4)cc3)n2)cc1

IC50 (MDA-MB-231 [1]): 5.99 µM
IC50 (MDA-MB-468): 10.3 µM
IC50 (MCF7): 9.7 µM
inhibition [2]: 68%
IC50 [3]: 6.24 µM
Structure (SMILES): COc1ccc(S(=O)(=O)Nc2ccc(Nc3nccc(Nc4cc(OC)c(OC)c(OC)c4)n3)cc2)cc1
inhibition (MDA-MB-231 [4]): Active
Activity (MCF-10A): Non-Toxic
Activity (MDA-MB-231 [5]): Active
viability at 2.5 µM (MDA-MB-231 [6]): 70.8%
Activity (MDA-MB-231 [7]): 10.7%
Activity (MDA-MB-231 [8]): 15.3%
Activity (MDA-MB-231 [9]): 3.23%
viability at 5 µM (MDA-MB-231 [10]): 42%
Activity (MDA-MB-231 [11]): 15.9%
Activity (MDA-MB-231 [12]): 33.2%
Activity (MDA-MB-231 [13]): 8.89%
Activity (MDA-MB-231 [14]): Active
Activity (MDA-MB-231 [15]): Active
Activity (MDA-MB-231 [16]): Active
inhibition (MDA-MB-231 [17]): Active
inhibition (MDA-MB-231 [18]): Active
inhibition (MDA-MB-231 [19]): Active
inhibition (MDA-MB-231 [20]): Active
inhibition (MDA-MB-231 [21]): Active
inhibition (MDA-MB-231 [22]): Active
Activity (MDA-MB-231 [23]): Active
Activity (MDA-MB-231 [24]): Active
Activity [25]: Non-Toxic
Activity [26]: Non-Toxic
Activity (MDA-MB-231 [27]): Active
Activity (MDA-MB-231 [28]): Active
Activity (MDA-MB-231 [29]): Active
Activity (MDA-MB-231 [30]): Active
